The text below walks through data of ChEMBL document CHEMBL1201862, “PubChem BioAssay data set” (2004).

For experiment [1], the target named is Hepatocyte nuclear factor 4-alpha (Homo sapiens, UniProt P41235). It is filed as functional, cell-based.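 Note: biochemical luminescence-based dose-response counterscreen measuring inhibition of HNF4 dimerization, run alongside a screen for blockers of ABHD5–perilipin-5 interaction; split luciferase complementation of HNF4 fusion proteins in cell lysate measuring dimerization.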
Hepatocyte nuclear factor 4-alpha, sequence (P41235 whole entry, the tested form may be a part): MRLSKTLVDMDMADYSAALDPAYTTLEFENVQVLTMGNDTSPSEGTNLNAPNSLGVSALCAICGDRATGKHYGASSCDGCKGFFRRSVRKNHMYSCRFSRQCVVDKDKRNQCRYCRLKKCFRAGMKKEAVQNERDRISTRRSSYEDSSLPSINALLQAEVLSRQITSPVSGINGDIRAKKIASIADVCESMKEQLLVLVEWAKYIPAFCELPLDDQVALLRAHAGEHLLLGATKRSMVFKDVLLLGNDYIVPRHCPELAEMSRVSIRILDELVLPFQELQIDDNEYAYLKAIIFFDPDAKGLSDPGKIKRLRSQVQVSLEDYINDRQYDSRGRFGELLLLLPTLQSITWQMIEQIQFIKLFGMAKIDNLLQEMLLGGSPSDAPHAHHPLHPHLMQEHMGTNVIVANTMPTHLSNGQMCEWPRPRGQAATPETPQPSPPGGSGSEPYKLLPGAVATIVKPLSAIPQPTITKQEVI
In experiment [2] the target is T1, Rac GTPase-activating protein 1 (Homo sapiens, UniProt Q9H0H5).
T1 sequence (Q9H0H5 whole entry): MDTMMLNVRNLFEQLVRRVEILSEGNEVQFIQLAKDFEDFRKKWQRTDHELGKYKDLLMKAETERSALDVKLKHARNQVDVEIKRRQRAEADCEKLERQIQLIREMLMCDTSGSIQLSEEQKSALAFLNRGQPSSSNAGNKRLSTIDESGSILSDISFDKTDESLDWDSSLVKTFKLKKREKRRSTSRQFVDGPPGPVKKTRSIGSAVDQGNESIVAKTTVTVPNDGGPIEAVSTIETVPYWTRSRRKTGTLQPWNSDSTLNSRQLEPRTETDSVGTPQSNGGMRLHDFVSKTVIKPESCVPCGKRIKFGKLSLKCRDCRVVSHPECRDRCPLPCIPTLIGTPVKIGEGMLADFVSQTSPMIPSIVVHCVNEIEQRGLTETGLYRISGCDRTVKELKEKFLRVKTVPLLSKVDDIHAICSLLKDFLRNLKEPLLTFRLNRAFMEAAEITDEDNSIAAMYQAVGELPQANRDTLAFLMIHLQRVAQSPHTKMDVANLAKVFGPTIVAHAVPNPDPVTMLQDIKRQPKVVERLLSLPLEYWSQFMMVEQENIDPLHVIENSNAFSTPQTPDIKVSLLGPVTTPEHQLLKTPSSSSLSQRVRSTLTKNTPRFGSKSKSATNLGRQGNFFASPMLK
In words: blockers of MgcRacGAP-driven Rac1 GTP hydrolysis – biochemical, ADP Hunter fluorescence, primary and confirmatory, confirmation (AID 624330). It is filed as functional.

The target of the next experiment is Estrogen receptor (Homo sapiens, UniProt P03372).
Estrogen receptor, sequence (P03372 whole entry): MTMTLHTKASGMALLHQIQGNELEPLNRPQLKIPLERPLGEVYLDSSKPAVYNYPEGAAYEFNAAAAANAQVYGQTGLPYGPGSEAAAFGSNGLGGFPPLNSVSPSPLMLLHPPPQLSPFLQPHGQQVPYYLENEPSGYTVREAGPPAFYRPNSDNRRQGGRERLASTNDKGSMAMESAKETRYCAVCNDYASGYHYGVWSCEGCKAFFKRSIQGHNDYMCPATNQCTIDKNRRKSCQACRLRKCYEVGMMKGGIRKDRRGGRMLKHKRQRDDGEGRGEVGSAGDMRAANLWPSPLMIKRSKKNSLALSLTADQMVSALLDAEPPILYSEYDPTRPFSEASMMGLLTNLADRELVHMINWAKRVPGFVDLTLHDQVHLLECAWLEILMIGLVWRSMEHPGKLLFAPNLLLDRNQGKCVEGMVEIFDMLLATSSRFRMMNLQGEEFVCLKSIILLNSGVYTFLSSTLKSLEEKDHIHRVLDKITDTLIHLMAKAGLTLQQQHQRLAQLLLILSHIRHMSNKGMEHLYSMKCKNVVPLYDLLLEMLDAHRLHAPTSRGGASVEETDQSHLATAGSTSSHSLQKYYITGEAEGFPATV
Experiment [3] deals with T2, Tyrosine-protein phosphatase non-receptor type 22 (Homo sapiens, UniProt Q9Y2R2).
T2 sequence (Q9Y2R2 whole entry): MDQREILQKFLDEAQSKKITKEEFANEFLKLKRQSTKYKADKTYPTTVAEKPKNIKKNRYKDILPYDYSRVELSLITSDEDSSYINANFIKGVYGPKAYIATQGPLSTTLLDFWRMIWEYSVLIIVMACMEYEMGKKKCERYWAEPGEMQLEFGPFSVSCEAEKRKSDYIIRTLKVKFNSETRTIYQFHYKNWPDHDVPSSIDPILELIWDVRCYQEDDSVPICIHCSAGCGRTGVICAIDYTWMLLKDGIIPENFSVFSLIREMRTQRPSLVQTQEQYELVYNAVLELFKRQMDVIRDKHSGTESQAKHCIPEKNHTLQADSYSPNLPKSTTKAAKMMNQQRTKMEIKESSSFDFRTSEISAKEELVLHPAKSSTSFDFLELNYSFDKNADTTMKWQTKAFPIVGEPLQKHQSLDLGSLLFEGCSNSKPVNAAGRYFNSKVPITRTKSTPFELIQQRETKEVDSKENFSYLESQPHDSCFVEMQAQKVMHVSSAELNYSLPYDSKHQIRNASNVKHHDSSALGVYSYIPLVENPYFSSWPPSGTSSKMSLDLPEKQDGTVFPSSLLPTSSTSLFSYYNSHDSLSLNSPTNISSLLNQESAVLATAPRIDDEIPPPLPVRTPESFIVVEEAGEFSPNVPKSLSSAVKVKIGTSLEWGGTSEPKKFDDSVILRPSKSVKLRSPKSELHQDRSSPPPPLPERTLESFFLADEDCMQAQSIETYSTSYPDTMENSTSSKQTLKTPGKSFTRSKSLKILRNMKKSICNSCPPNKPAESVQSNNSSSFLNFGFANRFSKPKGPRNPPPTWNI
The experiment can be described thus: lymphoid phosphatase LYP inhibitors – biochemical, selectivity assay for STEP inhibitor project, dose response (AID 624241). The format is functional.

The target in experiment [4] is Dual specificity protein phosphatase 3 (Homo sapiens, UniProt P51452). The experiment can be described thus: VHR phosphatase inhibition, dose response, selectivity assay for STEP inhibitor project, biochemical (AID 602374). As to conditions: read-out: IC50_Mean. The format is functional.
Dual specificity protein phosphatase 3, sequence (P51452 whole entry, the tested form may be a part): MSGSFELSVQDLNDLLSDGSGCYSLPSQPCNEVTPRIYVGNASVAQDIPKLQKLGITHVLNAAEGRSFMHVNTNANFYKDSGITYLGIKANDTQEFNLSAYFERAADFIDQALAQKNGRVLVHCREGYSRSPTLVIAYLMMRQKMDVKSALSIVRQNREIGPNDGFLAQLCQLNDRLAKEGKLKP
Experiment [5] addresses T3, Carboxy-terminal domain RNA polymerase II polypeptide A small phosphatase 1 (Homo sapiens, UniProt Q9GZU7).
T3 sequence (Q9GZU7 whole entry): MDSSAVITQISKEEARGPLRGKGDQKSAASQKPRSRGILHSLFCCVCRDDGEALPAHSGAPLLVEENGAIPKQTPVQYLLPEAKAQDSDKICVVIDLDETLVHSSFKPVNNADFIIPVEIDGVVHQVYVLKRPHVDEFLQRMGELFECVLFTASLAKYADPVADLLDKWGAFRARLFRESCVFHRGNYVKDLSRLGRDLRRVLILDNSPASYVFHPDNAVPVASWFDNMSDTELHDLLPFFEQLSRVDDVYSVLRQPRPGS
The experiment can be described thus: CTDSP1 inhibitors, concentration-response, biochemical, absorbance readout, ultra-high-throughput screen actives (AID 540297). The format is functional.

The target in another experiment is T4, Bcl-2-like protein 10 (Homo sapiens, UniProt Q9HD36).
T4 sequence (Q9HD36 whole entry): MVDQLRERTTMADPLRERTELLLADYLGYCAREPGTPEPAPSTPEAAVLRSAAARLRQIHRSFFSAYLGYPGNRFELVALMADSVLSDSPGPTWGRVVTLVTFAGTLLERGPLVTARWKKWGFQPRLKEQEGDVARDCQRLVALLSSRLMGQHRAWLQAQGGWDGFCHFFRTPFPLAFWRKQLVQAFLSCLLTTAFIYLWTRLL
In words: Bcl-B/TR3 peptide binding disruption – biochemical, fluorescence polarization, FITC-TR3 peptide, selectivity assay for Bfl-1 inhibitor project, primary screen (AID 748).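 Note: fluorescence polarization from a fluorescein-labelled TR3 peptide binding purified Bcl-B.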

Experiment [6] concerns the target T5, Estrogen receptor beta (Homo sapiens, UniProt Q92731). In words: blockers of SRC-3 recruitment to ERβ – biochemical, ELISA, streptavidin-HRP readout, orthogonal assay, confirmation (AID 1060). In general terms: ELISA stands for enzyme-linked immunosorbent assay.
Experiment [7] deals with Tyrosine-protein phosphatase non-receptor type 5 (Homo sapiens, UniProt P54829). The experiment can be described thus: PTPN5 enzyme inhibition – biochemical, fluorescence intensity, uHTS hits, confirmation (AID 602372). The format is functional. The following applies: read-out: IC50_Mean.
Tyrosine-protein phosphatase non-receptor type 5, sequence (P54829 whole entry): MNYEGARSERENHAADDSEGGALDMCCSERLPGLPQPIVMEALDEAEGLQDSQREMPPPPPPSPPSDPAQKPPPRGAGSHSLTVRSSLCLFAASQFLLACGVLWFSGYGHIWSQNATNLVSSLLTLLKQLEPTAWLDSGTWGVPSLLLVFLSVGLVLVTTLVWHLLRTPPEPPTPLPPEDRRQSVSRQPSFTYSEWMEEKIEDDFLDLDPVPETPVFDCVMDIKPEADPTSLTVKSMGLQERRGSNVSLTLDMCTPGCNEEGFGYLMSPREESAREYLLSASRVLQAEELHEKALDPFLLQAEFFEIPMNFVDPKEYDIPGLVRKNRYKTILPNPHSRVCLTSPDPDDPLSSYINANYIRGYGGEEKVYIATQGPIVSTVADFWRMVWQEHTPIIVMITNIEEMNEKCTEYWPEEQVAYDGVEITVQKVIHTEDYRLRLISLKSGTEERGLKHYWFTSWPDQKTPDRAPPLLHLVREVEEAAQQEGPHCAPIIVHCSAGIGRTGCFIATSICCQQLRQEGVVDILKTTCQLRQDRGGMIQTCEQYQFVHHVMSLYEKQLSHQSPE
Experiment [8] has as its target Tyrosine-protein phosphatase non-receptor type 11 (Homo sapiens, UniProt Q06124). The experiment can be described thus: PTPN11 enzyme inhibitors – biochemical, selectivity assay for STEP inhibitor project, dose response (AID 602367). It is filed as functional. As to conditions: read-out: IC50_Mean.
Experiment [9] concerns the target T5, Estrogen receptor beta.
In experiment [10] the target is Photoreceptor-specific nuclear receptor (Homo sapiens, UniProt Q9Y5X4). The format is functional, cell-based.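 Note: CHO-S cells with Gal4-NCOR and VP16-NR2E3 two-hybrid luciferase reporter.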
The next experiment concerns the target Cytochrome P450 3A4 (Homo sapiens, UniProt P08684).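 Note: CYP3A4 tested as one member of a cytochrome P450 panel screen.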
The target in experiment [11] is T6, Probable nicotinate-nucleotide adenylyltransferase (Staphylococcus aureus (strain N315), UniProt P65502). The format is functional, Staphylococcus aureus subsp. aureus N315. The following applies: read-out: IC50_Mean.
T6 sequence (P65502 whole entry): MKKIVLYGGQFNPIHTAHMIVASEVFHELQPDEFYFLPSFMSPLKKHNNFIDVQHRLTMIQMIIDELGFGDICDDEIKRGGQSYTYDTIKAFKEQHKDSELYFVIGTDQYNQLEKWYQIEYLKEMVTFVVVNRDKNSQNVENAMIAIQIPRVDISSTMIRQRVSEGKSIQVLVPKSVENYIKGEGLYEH
Experiment [12] addresses T7, Low molecular weight phosphotyrosine protein phosphatase (Homo sapiens, UniProt P24666). The format is functional. As to conditions: read-out: IC50_Mean.
Experiment [13] deals with T7, Low molecular weight phosphotyrosine protein phosphatase. The format is functional. As to conditions: read-out: IC50_Mean. This is another data set of the same source.
Experiment [14] concerns the target T6, Probable nicotinate-nucleotide adenylyltransferase. The format is functional, Staphylococcus aureus subsp. aureus N315.
Another experiment concerns the target Cytochrome P450 2C19 (Homo sapiens, UniProt P33261). The experiment can be described thus: Cytochrome panel assay with activity outcomes. Panel member name: p450-cyp2c19 Compounds with AC50 equal or less than 10 uM are considered active. The format is functional. The following applies: read-out: AC50.
Experiment [15] can be described thus: blockers of CRF-binding protein–CRF-R2 complex – cell-based, uHTS hits, 384-well, dose response (AID 651639). It is filed as functional, Homo sapiens. As to conditions: read-out: IC50_Mean.
In experiment [16] the target is T8, Corticotropin-releasing factor receptor 2/Corticotropin-releasing factor-binding protein (Homo sapiens, UniProt P24387+Q13324).
T8 sequence (Q13324 whole entry): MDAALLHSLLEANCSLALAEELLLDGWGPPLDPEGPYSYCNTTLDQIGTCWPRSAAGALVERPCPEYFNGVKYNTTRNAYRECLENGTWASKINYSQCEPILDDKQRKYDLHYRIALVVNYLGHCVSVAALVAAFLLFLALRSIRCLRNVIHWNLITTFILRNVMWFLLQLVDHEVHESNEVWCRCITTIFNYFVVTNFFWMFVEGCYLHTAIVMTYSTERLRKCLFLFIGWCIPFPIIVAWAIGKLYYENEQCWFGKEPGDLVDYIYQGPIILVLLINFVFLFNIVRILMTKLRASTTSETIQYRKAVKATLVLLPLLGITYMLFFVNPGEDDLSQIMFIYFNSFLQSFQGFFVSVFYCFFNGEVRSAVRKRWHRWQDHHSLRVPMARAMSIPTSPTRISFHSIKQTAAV
T8 sequence (P24387 whole entry): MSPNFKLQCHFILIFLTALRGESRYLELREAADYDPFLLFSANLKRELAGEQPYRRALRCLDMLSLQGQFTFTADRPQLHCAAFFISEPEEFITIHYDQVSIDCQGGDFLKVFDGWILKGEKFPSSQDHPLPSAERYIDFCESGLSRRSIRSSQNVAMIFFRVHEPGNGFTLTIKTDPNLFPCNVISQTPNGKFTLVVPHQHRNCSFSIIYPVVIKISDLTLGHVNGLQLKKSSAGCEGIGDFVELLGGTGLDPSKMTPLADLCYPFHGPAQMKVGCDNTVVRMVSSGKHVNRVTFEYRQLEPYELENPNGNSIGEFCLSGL
In words: activators of CRF receptor 2 with binding protein – uHTS hits, confirmation (AID 602473). The format is functional. The following applies: read-out: EC50_Mean.

Experiment [17] has as its target T8, Corticotropin-releasing factor receptor 2/Corticotropin-releasing factor-binding protein. The experiment can be described thus: Dose Response confirmation of uHTS hits for small molecule antagonists of the CRF-binding protein and CRF-R2 receptor complex. The format is functional. The following applies: read-out: IC50_Mean.
Experiment [18] has as its target Arf-GAP with SH3 domain, ANK repeat and PH domain-containing protein 1 (Homo sapiens, UniProt Q9ULH1). It is filed as functional.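 Note: biochemical fluorescence polarization dose–response screen measuring inhibition of ASAP1; ASAP1 GAP domain stimulating GTP hydrolysis by truncated human ARF1.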
The target of experiment [19] is T9, Adenosylmethionine-8-amino-7-oxononanoate aminotransferase (Mycobacterium tuberculosis, UniProt P9WQ81).
T9 sequence (P9WQ81 whole entry): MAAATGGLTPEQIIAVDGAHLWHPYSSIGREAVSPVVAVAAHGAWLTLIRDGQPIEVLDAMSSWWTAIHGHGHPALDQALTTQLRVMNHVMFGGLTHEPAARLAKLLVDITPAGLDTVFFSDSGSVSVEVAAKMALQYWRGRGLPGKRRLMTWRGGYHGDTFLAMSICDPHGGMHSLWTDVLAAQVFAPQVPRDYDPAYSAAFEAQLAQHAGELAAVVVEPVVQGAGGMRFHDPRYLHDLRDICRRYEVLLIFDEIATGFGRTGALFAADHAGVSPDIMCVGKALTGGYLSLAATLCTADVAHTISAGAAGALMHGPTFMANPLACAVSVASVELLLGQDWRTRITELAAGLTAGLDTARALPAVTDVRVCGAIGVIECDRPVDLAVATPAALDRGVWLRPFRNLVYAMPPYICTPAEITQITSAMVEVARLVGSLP
In words: Mycobacterium tuberculosis BioA enzyme inhibitor Measured in Biochemical System Using Plate Reader - 2163-02_Inhibitor_Dose_CherryPick_Activity. The format is functional, Mycobacterium tuberculosis UT205.

Experiment [20] in a line: HEK293 cell viability loss – plate reader, cherry-pick, cytotoxicity control, dose response (AID 651899). It is filed as functional, cell-based.

The structures appear in SMILES notation. Calls of active or inactive are those of the source.

T5 sequence (Q92731 whole entry): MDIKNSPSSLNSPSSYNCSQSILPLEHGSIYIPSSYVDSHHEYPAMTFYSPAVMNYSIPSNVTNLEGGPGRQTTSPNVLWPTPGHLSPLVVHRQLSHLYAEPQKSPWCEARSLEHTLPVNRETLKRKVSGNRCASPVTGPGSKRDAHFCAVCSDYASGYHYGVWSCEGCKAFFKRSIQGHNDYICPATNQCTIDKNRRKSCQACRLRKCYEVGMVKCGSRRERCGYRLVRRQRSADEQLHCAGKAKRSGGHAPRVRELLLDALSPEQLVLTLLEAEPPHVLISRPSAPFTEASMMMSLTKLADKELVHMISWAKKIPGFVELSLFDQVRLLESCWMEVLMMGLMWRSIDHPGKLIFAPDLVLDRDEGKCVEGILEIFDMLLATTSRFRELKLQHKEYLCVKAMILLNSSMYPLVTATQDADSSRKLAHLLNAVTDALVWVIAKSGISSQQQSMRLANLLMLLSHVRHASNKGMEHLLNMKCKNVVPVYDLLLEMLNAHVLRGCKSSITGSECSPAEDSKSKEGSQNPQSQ
T7 sequence (P24666 whole entry): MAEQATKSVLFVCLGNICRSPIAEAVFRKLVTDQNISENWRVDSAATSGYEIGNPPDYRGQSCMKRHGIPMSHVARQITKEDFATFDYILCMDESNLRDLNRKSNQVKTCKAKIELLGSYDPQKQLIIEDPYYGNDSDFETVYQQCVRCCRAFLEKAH
Cytochrome P450 2C19, sequence (P33261 whole entry): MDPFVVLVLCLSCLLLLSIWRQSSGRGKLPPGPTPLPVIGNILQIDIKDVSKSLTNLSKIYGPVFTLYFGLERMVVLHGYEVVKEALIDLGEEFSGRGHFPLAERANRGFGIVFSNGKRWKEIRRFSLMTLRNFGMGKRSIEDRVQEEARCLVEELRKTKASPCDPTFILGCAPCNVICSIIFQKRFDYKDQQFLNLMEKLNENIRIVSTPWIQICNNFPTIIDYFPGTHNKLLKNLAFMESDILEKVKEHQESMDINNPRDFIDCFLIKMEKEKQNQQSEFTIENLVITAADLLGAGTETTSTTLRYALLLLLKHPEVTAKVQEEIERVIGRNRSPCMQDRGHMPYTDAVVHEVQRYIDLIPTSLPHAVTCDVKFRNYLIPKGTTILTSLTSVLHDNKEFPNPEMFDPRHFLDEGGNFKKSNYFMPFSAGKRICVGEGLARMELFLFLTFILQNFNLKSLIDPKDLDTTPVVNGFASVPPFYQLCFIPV
Arf-GAP with SH3 domain, ANK repeat and PH domain-containing protein 1, sequence (Q9ULH1 whole entry, the tested form may be a part): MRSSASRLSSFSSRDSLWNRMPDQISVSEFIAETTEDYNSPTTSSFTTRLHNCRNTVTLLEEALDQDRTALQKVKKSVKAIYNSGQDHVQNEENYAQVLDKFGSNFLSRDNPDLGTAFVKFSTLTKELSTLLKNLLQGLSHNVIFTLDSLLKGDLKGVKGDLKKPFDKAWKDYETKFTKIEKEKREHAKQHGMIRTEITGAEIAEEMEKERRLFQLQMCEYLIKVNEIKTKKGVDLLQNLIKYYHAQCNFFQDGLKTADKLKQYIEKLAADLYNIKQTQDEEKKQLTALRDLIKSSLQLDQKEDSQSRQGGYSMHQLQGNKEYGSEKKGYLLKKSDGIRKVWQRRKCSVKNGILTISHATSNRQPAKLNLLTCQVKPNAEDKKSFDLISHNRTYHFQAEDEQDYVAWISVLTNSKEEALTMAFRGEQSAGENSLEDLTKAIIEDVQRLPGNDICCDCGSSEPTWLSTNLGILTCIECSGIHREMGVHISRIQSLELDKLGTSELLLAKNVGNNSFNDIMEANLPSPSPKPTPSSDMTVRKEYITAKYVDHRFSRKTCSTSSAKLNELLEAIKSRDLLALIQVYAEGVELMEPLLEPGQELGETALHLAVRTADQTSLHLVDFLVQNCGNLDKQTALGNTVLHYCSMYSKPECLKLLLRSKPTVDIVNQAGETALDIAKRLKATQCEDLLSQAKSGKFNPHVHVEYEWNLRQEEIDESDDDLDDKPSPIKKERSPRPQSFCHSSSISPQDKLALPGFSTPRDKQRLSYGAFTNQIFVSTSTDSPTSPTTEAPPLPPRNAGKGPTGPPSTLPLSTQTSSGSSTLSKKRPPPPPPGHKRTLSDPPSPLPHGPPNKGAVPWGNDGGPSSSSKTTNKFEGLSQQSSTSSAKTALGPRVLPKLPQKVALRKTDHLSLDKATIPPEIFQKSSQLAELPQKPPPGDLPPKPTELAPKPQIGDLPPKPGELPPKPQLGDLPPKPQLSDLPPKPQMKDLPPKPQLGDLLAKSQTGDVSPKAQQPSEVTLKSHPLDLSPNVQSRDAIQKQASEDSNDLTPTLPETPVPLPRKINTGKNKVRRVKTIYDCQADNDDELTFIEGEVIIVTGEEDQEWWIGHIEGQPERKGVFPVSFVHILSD
Tyrosine-protein phosphatase non-receptor type 11, sequence (Q06124 whole entry): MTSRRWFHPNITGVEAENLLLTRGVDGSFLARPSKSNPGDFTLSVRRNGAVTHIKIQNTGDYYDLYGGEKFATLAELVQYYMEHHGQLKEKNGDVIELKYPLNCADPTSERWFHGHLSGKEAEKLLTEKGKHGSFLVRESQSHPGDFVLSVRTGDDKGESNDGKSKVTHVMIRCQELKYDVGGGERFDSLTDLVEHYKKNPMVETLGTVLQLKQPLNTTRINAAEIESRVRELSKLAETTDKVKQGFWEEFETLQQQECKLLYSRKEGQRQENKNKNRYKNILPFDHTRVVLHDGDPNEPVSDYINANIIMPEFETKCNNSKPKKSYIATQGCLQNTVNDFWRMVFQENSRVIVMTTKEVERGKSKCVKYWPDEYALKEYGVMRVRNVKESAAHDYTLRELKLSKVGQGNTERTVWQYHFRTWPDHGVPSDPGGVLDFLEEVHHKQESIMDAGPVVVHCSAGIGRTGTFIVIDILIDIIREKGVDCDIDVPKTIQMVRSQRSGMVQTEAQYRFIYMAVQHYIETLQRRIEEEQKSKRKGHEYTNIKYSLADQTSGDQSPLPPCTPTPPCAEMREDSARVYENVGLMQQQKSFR

Take `CC1(C)C2CCC(CN=C(N)CSS(=O)(=O)O)C1C2` (stereo not given): the values for the IC50 in experiment [1] and in experiment [2] were 4.45 µM (active) and 65.3 µM (active), respectively.

Take `Cc1ccc(S(=O)(=O)Cc2ccc(C(=O)O)o2)cc1`: the IC50 is 18.1 µM (active) on Estrogen receptor; 21.8 µM (inactive) in [3]; 1.03 µM (active) in [4]; 3.66 µM (active) in [5]; 16 µM (active) on Bcl-2-like protein 10; < 0.023 µM (not active) against Estrogen receptor beta [6]. For the same compound, the IC50 was 23.4 µM (inactive) in experiment [7], 0.776 µM (active) in [8] and 5.22 µM (active) at Estrogen receptor beta [9].

On to `Cc1cnc(NC(=O)Cc2ccc(Br)cc2)s1`, for which the IC50 in [10] is 1.15 µM (active).

The term AC50 denotes the concentration at which the activity in the assay is half-maximal. `Cc1ccc(C(=O)NNC(=O)c2cc3cc4ccccc4nc3s2)cc1`: the AC50 on Cytochrome P450 3A4 was 4.47 µM (inconclusive); at Cytochrome P450 2C19 it was 39.8 µM (inconclusive). Besides, the IC50 was 27.3 µM (active) in experiment [11]; 52.9 µM (inactive) in experiment [12]; 12.8 µM (active) in experiment [13]; 12.1 µM (active) in [14]; 4.33 µM (active) in experiment [5].

Turning to `COc1ccccc1-c1c(C)nn2c(N3CCN(c4ccccc4OC)CC3)cc(C)nc12`, the IC50 is > 20 µM (inactive) in experiment [15] and 12.9 µM (active) in experiment [17]. Besides, the EC50 in experiment [16] was > 53 µM (inactive).

For the compound `CC1=CC2=NC(=O)/C(=C\c3ccc(-c4ccc(Cl)cc4)o3)C(=N)N2O1`, the IC50 in experiment [18] was 3.41 µM (active).

Turning to `COc1ccc(-c2[nH]nc3c2CN(C(=O)c2ccc(OC)c(OC)c2)CC3)cc1`, the AC50 in experiment [19] was 0.912 µM (active); in [20] it was 25.6 µM (active).
